Among the data in the OPERA property sets (Mansouri et al. 2018) are logP values, retold here.

Broadly, the logP is the decadic logarithm of the partition coefficient of the neutral form, usually between octanol and water. A higher logP goes with a more lipophilic compound. `O=[N+]([O-])c1cncnc1` yielded a logP of -0.05.
Molecule `CCCNC(=O)c1cccn1C` gave a logP of 1.63.
With `CCCNC(=O)c1cc2ccccc2[nH]1` the figure was 2.8; with `CCNC(=O)c1c[nH]c2ccccc12`, 1.62.
For the molecule `CCOC(=O)c1cc2ccccc2[nH]1`, the lipophilicity (logP) worked out at 3.22.
With `CNC(=O)c1ccc[nH]1` the figure was 0.42.
Molecule `CCNC(=O)c1cc2ccccc2[nH]1` had a logP of 2.32.
Take `CNC(=O)c1cccn1C`: the log partition coefficient (logP) is 0.71.
Turning to `CCNC(=O)c1ccc[nH]1`, the logP was determined as 0.8.
With `NC(=O)c1ccc[nH]1`, the logP stood at 0.09.
Consider `CNC(=O)c1c[nH]c2ccccc12`, for which the lipophilicity (logP) is 1.25.
For the molecule `CCCNC(=O)c1ccc[nH]1`, the logP stood at 1.25.
Next, `CNC(=O)c1cc2ccccc2[nH]1`: 1.9.
Molecule `CCNC(=O)c1cc2ccccc2o1` came in with a logP of 2.22.
As to `CCCNC(=O)c1ccoc1`, the logP was 1.2.
In turn, `COC(=O)c1cccn1C` gave a logP of 1.8.
With `CCOC(=O)c1cc2ccccc2o1` the figure was 3.05; with `CCCNC(=O)c1cc2ccccc2o1`, 2.65.
For the molecule `CCOC(=O)c1ccc[nH]1`, the logP is 1.73.
On to `CCNC(=O)c1cccn1C`, for which the log partition coefficient (logP) came out at 1.09.
Next, `Cn1cccc1C(N)=O`: 0.45.
Molecule `CNC(=O)c1cc2ccccc2o1` gave a logP of 1.85.
